# Source: US20240228446A1, “PREPARATION METHOD FOR BICYCLIC COMPOUND AND APPLICATION AS ANTIFUNGAL AGENT” (priority 2021, published 2024)
# Tested on: Candida albicans ATCC MYA-2876
# Test: Minimal inhibitory concentration (MIC) test on fungal growth (CLSI M27, yeasts)
# Format: cell-based
# Settings: Candida albicans, 24 h, read-out: MIC Candida albicans ATCC MYA-2876
# Description: • RPMI1640 medium: Brand: Gibco, article number: 31800-014 • Sabouraud dextrose agar (SDA): Brand: Hope Bio, article number: HB0253-81 • Voriconazole: Brand: Adamas, article number: 22105A • Amphotericin B: Brand: AbCam, article number: ab141199
# MIC test was conducted in accordance with the guidelines and requirements of CLSI M27 (for yeasts) and M38 (for Aspergillus).
# Strain preparation: The strains were inoculated 1 day in advance by streaking on SDA plates with glycerol strains stored at −80° C. The strains were cultured at 35° C. and 40 to 60% humidity for 18 to 24 hours. Streak inoculation of Aspergillus fumigatus and Cryptococcus neoformans was required to be done 3 days and 2 days in advance, respectively.
# Preparation of culture medium and compounds: The liquid culture medium RPMI was prepared with pure water, and 0.165 mol/L MOPS was added to adjust the pH to 7.0. The mixture was filtered with a 0.22 μm-membrane filter, sterilized, and stored at 4° C. (no more than 3 months). 0.85% physiological saline was sterilized at 121° C. for 30 min and then stored at room temperature (no more than 1 week). The compounds were dissolved in DMSO to 12.8 mg/mL and stored at −20° C.
# For yeast, 3 to 5 colonies were selected from the SDA plate on the day of testing and fully suspended in 5 mL of sterilized 0.85% physiological saline. The turbidity of the bacterial suspension was measured with a turbidimeter, and the turbidity was adjusted to approximately 0.2. The bacterial suspension was 50-fold and 20-fold (1000-fold in total) diluted in RPMI1640 medium, respectively, to serve as the inoculum. The final inoculum concentration was 500 to 2500 CFU/mL.
# The compound was diluted to the highest 800 μg/mL (or 400 μg/mL) with DMSO, and a 10-step 2-fold gradient dilution was performed, resulting in 11 concentrations. 2 μL of the gradient-diluted compound was transferred to the corresponding wells of a 96-well plate, and then 198 μL of the inoculum was transferred to the test plate. The plate was incubated at 35° C. for 24 hours (Aspergillus fumigatus and Cryptococcus neoformans were incubated for 48 and 72 hours, respectively).
# After the incubation, the growth of the fungi was visually observed. The lowest concentration of the compound that inhibited the growth of yeast by 50% (inhibited Aspergillus by 100%) was defined as the minimum inhibitory concentration (MIC, μg/mL). A magnifying glass or reading at OD530 nm could be used to assist in determining the MIC. Photos were taken of the test plates for record keeping.
row,SMILES,MIC
1,CN(C)CCOc1ccc(C23CC(C(F)(F)C(O)(Cn4cnnn4)c4ccc(F)cc4F)(C2)C3)cc1 (centres unmarked) [Compound 64],0.06 µg/mL
2,COc1ccc(C23CC(C(F)(F)C(O)(Cn4cnnn4)c4ccc(F)cc4F)(C2)C3)cn1 (centres unmarked) [Compound 92],0.03 µg/mL
3,CC(C)NC[C@@H](O)COc1ccc(C23CC(C(F)(F)C(O)(Cn4cnnn4)c4ccc(F)cc4F)(C2)C3)cc1 (some centres unmarked) [Compound 54],0.5 µg/mL
4,OC(COc1ccc(C23CC(C(F)(F)C(O)(Cn4cnnn4)c4ccc(F)cc4F)(C2)C3)cc1)CN1CCOCC1 (centres unmarked) [Compound 57],0.06 µg/mL
5,OC(Cn1cnnn1)(c1ccc(F)cc1F)C(F)(F)C12CC(c3ccc(OCC(F)(F)F)nn3)(C1)C2 (centres unmarked) [Compound 114],0.06 µg/mL

# Same assay, conditions: Candida albicans; lowest concentration inhibiting growth of yeast by 50%; 35° C., 24 hours; RPMI1640; read-out: MIC Candida albicans ATCC MYA-2876
row,SMILES,MIC
1,CC(F)(C12CC(c3ccc(OCC(F)(F)F)cc3)(C1)C2)C(O)(Cn1cnnn1)c1ccc(F)cc1F (centres unmarked) [Compound 18],0.016 µg/mL
2,O[C@](Cn1cnnn1)(c1ccc(F)cc1F)C(F)(F)C12CC(c3ccc(OCC(F)(F)F)cc3)(C1)C2 [Compound 3B],1 µg/mL
3,OC(Cn1cnnn1)(c1ccc(F)cc1F)C(F)(F)C12CC(c3cnc(OCC(F)(F)F)nc3)(C1)C2 (centres unmarked) [Compound 110],0.06 µg/mL
4,CN1CC(Oc2ccc(C34CC(C(F)(F)C(O)(Cn5cnnn5)c5ccc(F)cc5F)(C3)C4)cc2)C1 (centres unmarked) [Compound 45],0.03 µg/mL
5,OC(Cn1cncn1)(c1ccc(Cl)cc1F)C(F)(F)C12CC(c3ccc(OCC(F)(F)F)cc3)(C1)C2 (centres unmarked) [Compound 5],0.016 µg/mL
6,COc1nc(C23CC(C(F)(F)C(O)(Cn4cnnn4)c4ccc(F)cc4F)(C2)C3)cs1 (centres unmarked) [Compound 119],0.06 µg/mL
7,OC(Cn1cnnn1)(c1ccc(F)cc1F)C(F)(F)C12CC(c3cnc(OCC(F)(F)F)cn3)(C1)C2 (centres unmarked) [Compound 107],0.06 µg/mL
8,OC(COc1cnc(C23CC(C(F)(F)C(O)(Cn4cnnn4)c4ccc(F)cc4F)(C2)C3)cn1)C(F)(F)F (centres unmarked) [Compound 108],0.06 µg/mL
9,OC(COc1ccc(C23CC(C(F)(F)C(O)(Cn4cnnn4)c4ccc(F)cc4F)(C2)C3)cc1)C1COC1 (centres unmarked) [Compound 152],0.0078 µg/mL
10,OC(Cn1cnnn1)(c1ccc(F)cc1F)C(F)(F)C12CC(c3ccc(OCC4(F)COC4)nc3)(C1)C2 (centres unmarked) [Compound 122],0.016 µg/mL
11,O[C@](Cn1cnnn1)(c1ccc(F)cc1F)C(F)(F)C12CC(C1)C2 [Compound 6B],2 µg/mL
12,O[C@H](COc1ccc(C23CC(C(F)(F)C(O)(Cn4cnnn4)c4ccc(F)cc4F)(C2)C3)cc1)CN1CCOCC1 (some centres unmarked) [Compound 58],0.06 µg/mL
13,"O[C@](Cn1cncn1)(c1ccc(F)cc1F)C(F)(F)C12CC(C1)C2 (single isomer, unassigned) [Compound 10B]",1 µg/mL
14,OC(Cn1cnnn1)(c1ccc(F)cc1F)C(F)(F)C12CC(c3ccc(COC(F)F)cc3)(C1)C2 (centres unmarked) [Compound 159],0.0078 µg/mL
15,O[C@@H](CNc1ccc(C23CC(C(F)(F)[C@](O)(Cn4cnnn4)c4ccc(F)cc4F)(C2)C3)cn1)C(F)(F)F (relative stereo) [Compound 99B],0.03 µg/mL
16,CN(C)C[C@@H](O)COc1ccc(C23CC(C(F)(F)C(O)(Cn4cnnn4)c4ccc(F)cc4F)(C2)C3)cc1 (some centres unmarked) [Compound 55],0.25 µg/mL
17,OC(Cn1cnnn1)(c1cc(F)ccc1F)C(F)(F)C12CC(c3ccc(OCC(F)(F)F)cc3)(C1)C2 (centres unmarked) [Compound 9],0.03 µg/mL
18,"CNC(=O)COc1ccc(C23CC(C(F)(F)[C@@](O)(Cn4cncn4)c4ccc(F)cc4F)(C2)C3)cc1 (single isomer, unassigned) [Compound 35B]",0.125 µg/mL
19,O[C@@](Cn1ncnn1)(c1ccc(F)cc1F)C(F)(F)C12CC(c3cnc(OCC(F)(F)F)nc3)(C1)C2 (stereo in doubt) [Compound 110A],0.016 µg/mL
20,OC1(COc2ccc(C34CC(C(F)(F)C(O)(Cn5cnnn5)c5ccc(F)cc5F)(C3)C4)cc2)COC1 (centres unmarked) [Compound 150],0.03 µg/mL
21,COC(=O)c1ccc(C23CC(C(F)(F)C(O)(Cn4cnnn4)c4ccc(F)cc4F)(C2)C3)cc1 (centres unmarked) [Compound 77],0.016 µg/mL

row,SMILES,MIC
1,CN1CCC(O)(COc2ccc(C34CC(C(F)(F)C(O)(Cn5cnnn5)c5ccc(F)cc5F)(C3)C4)cc2)CC1 (centres unmarked) [Compound 38],0.5 µg/mL
2,OC(Cn1cnnn1)(c1ccc(F)cc1F)C(F)(F)C12CC(c3ccc(COCC(F)(F)F)cc3)(C1)C2 (centres unmarked) [Compound 160],0.016 µg/mL
3,OC(Cn1cnnn1)(c1ccc(F)cc1F)C(F)(F)C12CC(c3ccc(OC4CNC4)cc3)(C1)C2 (centres unmarked) [Compound 44],0.06 µg/mL
4,CN1CCOC(COc2ccc(C34CC(C(F)(F)C(O)(Cn5cnnn5)c5ccc(F)cc5F)(C3)C4)cc2)C1 (centres unmarked) [Compound 85],0.03 µg/mL
5,N#Cc1ccc(C23CC(C(F)(F)[C@@](Cn4cncn4)(OP(=O)(O)O)c4ccc(F)cc4F)(C2)C3)cc1 [Compound 27A-P1],2 µg/mL
6,OC(Cn1cnnn1)(c1ccc(F)cc1F)C(F)(F)C12CC(c3cccc(OCC(F)(F)F)c3)(C1)C2 (centres unmarked) [Compound 31],0.125 µg/mL
7,O=S1(=O)CCC(c2ccc(C34CC(C(F)(F)C(O)(Cn5cnnn5)c5ccc(F)cc5F)(C3)C4)cc2)CC1 (centres unmarked) [Compound 163],0.0078 µg/mL
8,OC(Cn1cnnn1)(c1ccc(F)cc1F)C(F)(F)C12CC(c3ccc(OC(F)F)cc3)(C1)C2 (centres unmarked) [Compound 26],0.016 µg/mL
9,NS(=O)(=O)Oc1ccc(C23CC(C(F)(F)C(O)(Cn4cnnn4)c4ccc(F)cc4F)(C2)C3)cc1 (centres unmarked) [Compound 68],0.13 µg/mL
10,CN1CC[C@@H](Oc2ccc(C34CC(C(F)(F)C(O)(Cn5cnnn5)c5ccc(F)cc5F)(C3)C4)cc2)C1 (some centres unmarked) [Compound 42],0.06 µg/mL
11,COc1ccc(C23CC(C(C)(F)C(O)(Cn4cnnn4)c4ccc(F)cc4F)(C2)C3)cc1 (centres unmarked) [Compound 17],0.125 µg/mL
12,CS(=O)(=O)c1ccc(C23CC(C(F)(F)C(O)(Cn4cnnn4)c4ccc(F)cc4F)(C2)C3)cc1 (centres unmarked) [Compound 88],0.25 µg/mL
13,O=C1NC[C@@H](COc2ccc(C34CC(C(F)(F)C(O)(Cn5cnnn5)c5ccc(F)cc5F)(C3)C4)cc2)O1 (some centres unmarked) [Compound 60],0.06 µg/mL
14,CN1CC(COc2ccc(C34CC(C(F)(F)C(O)(Cn5cnnn5)c5ccc(F)cc5F)(C3)C4)cc2)C1 (centres unmarked) [Compound 75],0.13 µg/mL
15,N#Cc1cccc(C23CC(C(F)(F)C(O)(Cn4cnnn4)c4ccc(F)cc4F)(C2)C3)c1 (centres unmarked) [Compound 30],0.06 µg/mL
16,OC(Cn1cncn1)(c1ccc(F)cc1F)C(F)(F)C12CC(c3ccc(OCC(F)(F)F)nc3)(C1)C2 (centres unmarked) [Compound 47],0.0078 µg/mL
17,CNC(=O)c1ccc(C23CC(C(F)(F)C(O)(Cn4cnnn4)c4ccc(F)cc4F)(C2)C3)cc1 (centres unmarked) [Compound 79],0.25 µg/mL
18,OC(Cn1cnnn1)(c1ccc(F)cc1F)C(F)(F)C12CC(c3ccc(OC(F)(F)F)cc3)(C1)C2 (centres unmarked) [Compound 24],0.03 µg/mL
19,OC(Cn1cnnn1)(c1ccc(F)cc1F)C(F)(F)C12CC(c3ccc(OCc4nccs4)cc3)(C1)C2 (centres unmarked) [Compound 73],0.016 µg/mL
20,CC(C12CC(c3ccc(C#N)cc3)(C1)C2)C(O)(Cn1cncn1)c1ccc(F)cc1F (centres unmarked) [Compound 126],0.016 µg/mL

# Same assay, conditions: lowest concentration inhibiting growth of yeast by 50%; 35° C., 24 hours; RPMI1640
row,SMILES,MIC Candida albicans ATCC MYA-2876
1,O[C@@](Cn1cnnn1)(c1ccc(Cl)cc1F)C(F)(F)C12CC(c3ccc(OCC(F)(F)F)cc3)(C1)C2 [Compound 7A],0.0078 µg/mL
2,O[C@](Cn1cnnn1)(CC12CC(c3ccc(OCC(F)(F)F)cc3)(C1)C2)c1ccc(F)cc1F [Compound 48A],0.016 µg/mL
3,"Oc1ccc(C23CC(C(F)(F)[C@](O)(Cn4cnnn4)c4ccc(F)cc4F)(C2)C3)cc1 (single isomer, unassigned) [Compound 20A]",0.06 µg/mL
4,O[C@](Cn1cnnn1)(c1cc(F)ccc1F)C(F)(F)C12CC(c3ccc(OCC(F)(F)F)cc3)(C1)C2 [Compound 9A],0.06 µg/mL
